The text below walks through data of ChEMBL document CHEMBL5729389, “1,4-diphenyl-1H-imidazole and 2,4-diphenylthiazole derivatives and preparation method therefor and use thereof” (2022).

Where only a bound is given, the exact number is not on record here.

Sequence of Toll-like receptor 1/2 (O60603 whole entry): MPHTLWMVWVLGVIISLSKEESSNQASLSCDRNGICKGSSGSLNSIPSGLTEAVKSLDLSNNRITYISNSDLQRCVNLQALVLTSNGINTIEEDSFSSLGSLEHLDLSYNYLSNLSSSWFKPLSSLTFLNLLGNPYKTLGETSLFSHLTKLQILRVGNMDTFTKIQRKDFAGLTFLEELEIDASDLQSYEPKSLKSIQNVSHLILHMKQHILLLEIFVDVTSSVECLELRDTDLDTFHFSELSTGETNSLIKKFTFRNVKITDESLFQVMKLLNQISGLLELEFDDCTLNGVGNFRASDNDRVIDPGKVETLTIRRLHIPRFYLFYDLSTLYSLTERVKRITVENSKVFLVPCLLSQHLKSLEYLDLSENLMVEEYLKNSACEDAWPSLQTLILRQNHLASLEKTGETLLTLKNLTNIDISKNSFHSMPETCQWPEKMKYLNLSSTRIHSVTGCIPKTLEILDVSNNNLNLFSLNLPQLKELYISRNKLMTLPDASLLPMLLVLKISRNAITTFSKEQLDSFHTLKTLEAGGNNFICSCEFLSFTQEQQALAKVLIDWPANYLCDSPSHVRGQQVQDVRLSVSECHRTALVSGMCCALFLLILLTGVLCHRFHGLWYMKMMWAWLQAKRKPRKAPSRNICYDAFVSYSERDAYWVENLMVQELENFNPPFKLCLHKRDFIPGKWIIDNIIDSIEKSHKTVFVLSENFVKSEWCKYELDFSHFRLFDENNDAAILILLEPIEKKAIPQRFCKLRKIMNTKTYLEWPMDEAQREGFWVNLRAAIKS
Sequence of Toll-like receptor 1/2 (Q15399 whole entry): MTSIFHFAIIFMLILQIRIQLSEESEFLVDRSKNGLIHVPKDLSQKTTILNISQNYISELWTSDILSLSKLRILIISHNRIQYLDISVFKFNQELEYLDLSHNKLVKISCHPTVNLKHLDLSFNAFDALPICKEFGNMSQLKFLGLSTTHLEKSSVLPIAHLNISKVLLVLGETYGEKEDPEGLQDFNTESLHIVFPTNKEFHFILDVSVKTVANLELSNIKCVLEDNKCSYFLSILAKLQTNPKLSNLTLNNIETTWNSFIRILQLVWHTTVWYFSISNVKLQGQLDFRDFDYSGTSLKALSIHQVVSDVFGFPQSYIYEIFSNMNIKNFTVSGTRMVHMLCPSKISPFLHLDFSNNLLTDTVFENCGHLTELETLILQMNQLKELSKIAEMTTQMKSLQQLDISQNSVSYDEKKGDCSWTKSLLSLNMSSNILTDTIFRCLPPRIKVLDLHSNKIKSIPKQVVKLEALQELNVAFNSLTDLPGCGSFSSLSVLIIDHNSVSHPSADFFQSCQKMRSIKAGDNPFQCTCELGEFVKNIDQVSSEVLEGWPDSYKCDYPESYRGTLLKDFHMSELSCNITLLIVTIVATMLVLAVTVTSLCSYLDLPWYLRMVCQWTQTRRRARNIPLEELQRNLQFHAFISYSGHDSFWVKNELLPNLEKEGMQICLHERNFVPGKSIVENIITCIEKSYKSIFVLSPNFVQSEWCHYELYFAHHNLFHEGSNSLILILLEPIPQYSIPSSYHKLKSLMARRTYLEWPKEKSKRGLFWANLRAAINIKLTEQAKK

The assay concerns the target Toll-like receptor 1/2 (Homo sapiens, UniProt O60603+Q15399). Briefly: TBD: TBD. The assay is classed as protein-complex assay.
The term EC50 denotes the concentration at which the effect is half-maximal. The low end stands for higher potency in that assay, the high end for lower potency in that assay. For `O=[N+]([O-])c1ccc(Cl)c(-c2nc(-c3ccc(C(F)(F)F)cc3O)cs2)c1`, the EC50 is over 1 µM.

On to `CNc1ccc([N+](=O)[O-])cc1-n1cnc(-c2ccc(C(F)(F)F)cc2OS(=O)(=O)O)c1`, for which the EC50 was 0.0491 µM.

In the case of `FC(F)(F)c1ccc(-c2csc(-c3ccc(C(F)(F)F)cc3)n2)cc1`, the EC50 is over 1 µM.

In turn, `Oc1cc(C(F)(F)F)ccc1-c1csc(-c2ccc(C(F)(F)F)cc2)n1` displayed an EC50 of over 1 µM.

In turn, `COc1ccc(-c2nc(-c3ccc(C(F)(F)F)cc3O)cs2)cc1` had an EC50 of over 1 µM.

In the case of `CNc1ccc([N+](=O)[O-])cc1-n1cnc(-c2ccc(C(F)(F)F)cc2OCCN)c1`, the EC50 was over 1 µM.

As for `O=[N+]([O-])c1ccc(-c2nc(-c3ccc(C(F)(F)F)cc3)cs2)cc1`, the EC50 is over 1 µM.
